In patent publication US6340770B1, “Platinum (IV) complex used as anti-cancer agent and preparing method thereof” (Sook Myung Women's University, priority 1999, dated 2002):

How the values were obtained:
L1210 cells [1] = test: MTT assay, anti-cancer activity on L1210 cells in vitro; format: cell-based, mice; set-up: Cell Growth: unit not given here; conditions: for IC50: MTT, 48 hours, read-out: IC50 in L1210 Cell; for Cell Growth: L1210, 48 hours; for anti-cancer activity (IC50) compared with cisplatin, in words: L1210 cell
Protocol: (§1) In order to examine anti-cancer activity of Pt(IV) complexes according to the present invention, MTT, i.e., [3-(4,5-dimethylthiazol-2-yl)-2,5-diphenyltetrazolium bromide] assay was performed on HL60 and L1210 which are leukemic cell of human and mice, respectively.
(§2) MTT assay is a quantitative color analysis based on that mitochondrial dehydrogenase, one of cell enzymes, changes yellow water-soluble MTT into deep-blue water-insoluble formazan, and the amount of the generated formazan is proportioned to active cell numbers.^122-124)
(§3) HL60 and L1210, suspended leukemic cells of humans and mice, respectively are used as cancer cells for determining the anti-cancer activity of the Pt (IV) complex according to the above Examples. They were obtained by cultivating the frozen cells alloted from Korean Cell Line Bank.
(§4) Cells were subject to subculture at the interval of 2-3 days at 37° C. in the presence of 5% CO2 in RPMI 1640 culture medium controlled to contain 1% penicillin-streptomycin (10,000 unit/ml) and 10% FBS, with keeping the cell number between 2×10^5/ml-5×10^5/ml.
(§5) Pt (IV) complexes prepared by the Examples of the present invention were used as pharmaceutical compounds. Among them, a water-soluble compound was used as it was, and a water-insoluble compound was used after dissolving in DMSO or 95% ethanol, adding PBS to be 2 mM concentarion, filtering with 0.2μ syringe filter to be sterile state and performing serial-dilution with a culture medium to control predetermined concentrations. The final concentration of DMSO or 95% ethanol in cell culture medium was controlled to be below 0.1%.
HL60 and L1210 cells were put into 96-well plate in the amount of 10^4/well and then stabilized for a half hour at 37° C. in the presence of 5% CO2.
(§6) After cultivating HL60 cell at 37° C. in the presence of 5% CO2 for 72 hours and L1210 for 48 hours, MTT reagent (2 mg/ml) was added 50 μl/well, and an additional cultivation was performed at 37° C. in the presence of 5% CO2 for 4 hours. Then, after centrifuging the resultant at 2000 rpm for 5 minites, the supernatant was removed by 170 μl/well.
(§7) Then, after adding DMSO 150 μl/well, the resultant was laid at 40° C. for 30 minutes and stirred for 3 minutes. Then, absorption test using ELISA reader was performed at 570 nm.
(§8) For calibration, a blank test was performed on the same 96-well plate under the same condition.
(§9) The above-described experiment was performed on more than 3 wells under the same condition with different concentration, and the same experiment was repeated over 3 times.

HL60 cells = test: MTT assay, anti-cancer activity on HL60 cells in vitro; format: cell-based, human; set-up: Cell Growth: unit not given here; conditions: for IC50: MTT, 72 hours, read-out: IC50 in HL60 Cell; for Cell Growth: HL60, 72 hours; for anti-cancer activity (IC50) compared with cisplatin, in words: HL60 cell
Protocol: as §1, §2, §3, §4, §5
HL60 and L1210 cells were put into 96-well plate in the amount of 10^4/well and then stabilized for a half hour at 37° C. in the presence of 5% CO2. […]
as §6, §7, §8, §9

male ICR mice = test: Nephrotoxicity test, serologic analysis (BUN, creatinine, uric acid) after i.p. injection; format: in vivo; set-up: unit not given here; conditions: serum, dose 8x IC50 (cisplatin 7x IC50), average ± SD of 5-6 ICR mice
Protocol: In order to serologically analyze nephrotoxicity of various Pt complexes, after injecting each agent intraperitneally, blood was exsanguinated after 6 hours, 1 day, 3 days and 7 days, respectively. Then, serum was seperated f rom the blood to detect the values of BUN (Blood urea nitrogen), creatinine and uric acid.^133)
As an experimental animal, male ICR mice each weighing about 25 g were purchased from Korean Experimental Animal Center. The experimental animals were bred in SPF(Specific Pathogen Free) room in Medical School of HanYang University, and food (purchased from SamYang) and water were supplied unrestrictedly.
The experimental animals were divided into a normal control group, a control group and an experimental group, and the experimental group was again divided into a cisplatin dispensing group, a 7(Ac)Cl treated group, a 7(TF)Cl treated group, a 7(Ac)M treated group, a 7(TF)M treated group and a 7FMN treated group.
Each groups comprised 20-22 mice, and each group was again divided into a 6 hour-treating group, a 1 day-treating group, a 3 day-treating group and a 7 day-treating group, which contains 5-6 mice, respectively.
First, a predetermined amount of agent was dissolved in DMSO or ethanol, and then PBS was added thereto to make the total volume be 6.6 ml. At this time, the content of DMSO or ethanol was controlled to be below 5%.
The agent dissolved in PBS was filtered using 0.2μ syringe filter, sterilized, and injected into intraperitoneally. Then, after 6 hours, 1 day, 3 days and 7 days, exsanguination was performed.
After seperating serum by centrifuging the blood exsanguinated from mice at 4,500 rpm for 15 minutes, the serum was kept at the temperature −20° C. BUN (Blood urea nitrogen), creatinine and uric acid were detected using a biochemical automatic analyzing apparatus (Olympus reply, Japan) and average and standard deviation were calculated from the obtained data.
Control group was dissolved in PBS and injected in dose of 6.6 ml/Kg.

[2] = test system: proximal renal tubule cells; test: Nephrotoxicity test, electron microscopic findings (TEM) of proximal renal tubule; format: in vivo, mice
Protocol: In order to observe the ultra-structural changes of proximal renal tubule cells, a part of renal cortex of kidney was finely cut in the size of 1 mm^3, pre-fixed with 2% glutaraldehyde-2.5% paraformaldehyde solution, which is prepared with Millonig's phosphate buffer (pH 7.2) at 4° C. for 2-4 hours, and post-fixed with 1% osmium tetroxide for 2 hours, which is diluted with the same buffer solution. Then, after dehydrating the specimen according to ethanol-acetone concentration difference and embeding in Epon 812, it was made to be 2-5 μm thickness in thin section using ultramicrotome and temporarily stained with methylene blue to determine a proper site. Then, it was prepared tobe 60-80 nm thickness of the ultra-thin section, subject to double-staining with uranyl acetate and lead citrate, and observed with TEM (transmission electron microscope; Hitachi-600, Japan).

L1210 cells [3] = conditions: literature value (J. Med. Chem. 1994, vol.37, No.10, 1471-1485); cited from earlier work
[4] = 1 Day after single i.p. injection
[5] = 7 Day after single i.p. injection
[6] = 6 hour after single i.p. injection
[7] = 3 day after single i.p. injection

IC50 (L1210 cells [1]) [µM] | IC50 (HL60 cells) [µM] | SMILES | anti-cancer activity (IC50) compared with cisplatin, in words (L1210 cells [1]) | anti-cancer activity (IC50) compared with cisplatin, in words (HL60 cells) | BUN after the 1st time injection (male ICR mice; [4]) | Uric acid after the 1st time injection (male ICR mice; [4]) | BUN after the 1st time injection (male ICR mice; [5]) | Uric acid after the 1st time injection (male ICR mice; [5]) | BUN after the 1st time injection (male ICR mice; [6]) | Uric acid after the 1st time injection (male ICR mice; [6]) | BUN after the 1st time injection (male ICR mice; [7]) | Uric acid after the 1st time injection (male ICR mice; [7]) | further results
19.3 | 16.1 | [Cl][Pt]1([Cl])[NH]CCC[NH]1 [6 Cl, cis-dichloro-1,3-propanediamine Pt(II) complex] | – | – | – | – | – | – | – | – | – | – | –
2.01 | 1.83 | [Cl][Pt]1([Cl])[NH]CCCC[NH]1 [7 Cl, cis-dichloro-1,4-butanediamine Pt(II) complex] | – | – | – | – | – | – | – | – | – | – | –
15 | 13.8 | O=C1CC(=O)[O][Pt]2([NH]CCCC[NH]2)[O]1 [7 Mal, malonato-1,4-butanediamine Pt(II) complex] | – | – | – | – | – | – | – | – | – | – | Cell Growth (L1210 cells [1]; 0.01 μM): 91; Cell Growth (L1210 cells [1]; 0.05 μM): 95; Cell Growth (L1210 cells [1]; 0.1 μM): 93; Cell Growth (L1210 cells [1]; 0.5 μM): 84.8; Cell Growth (L1210 cells [1]; 1 μM): 80.1; Cell Growth (L1210 cells [1]; 5 μM): 68; Cell Growth (L1210 cells [1]; 10 μM): 55; Cell Growth (L1210 cells [1]; 50 μM): 26.1; Cell Growth (L1210 cells [1]; 100 μM): 20.5; Cell Growth (HL60 cells; 0.01 μM): 92; Cell Growth (HL60 cells; 0.05 μM): 89; Cell Growth (HL60 cells; 0.1 μM): 89; Cell Growth (HL60 cells; 0.5 μM): 82.6; Cell Growth (HL60 cells; 1 μM): 78.8; Cell Growth (HL60 cells; 5 μM): 63.2; Cell Growth (HL60 cells; 10 μM): 57; Cell Growth (HL60 cells; 50 μM): 27; Cell Growth (HL60 cells; 100 μM): 20
– | – | CC(=O)[O][Pt]1([Cl])([Cl])([O]C(C)=O)[NH]CCCC[NH]1 [7(Ac)Cl, trans, cis-diacetato,dichloro-1,4-butanediamine Pt(IV) complex] | superior to cisplatin(CDDP) | superior to that of cisplatin | 19.4 ± 3.3 | 1.92 ± 0.4 | 22.1 ± 3.4 | 1.74 ± 0.5 | 29.2 ± 1.8 | 2.18 ± 1.0 | 19.2 ± 2.8 | 1.88 ± 0.6 | nephrotoxicity compared with cisplatin (conclusion from serologic and electron microscopic analysis) ([2]; 7(Ac)Cl 6 mg/kg, 7(TF)Cl 5.3 mg/kg (8 times of IC50), cisplatin 6 mg/kg (7 times of IC50), i.p.): weaker toxicity than cisplatin; ultra-structural changes of proximal renal tubule epithelial cells (TEM) ([2]; one day after i.p. injection): cytoplasmic organelle damages
– | – | CC(=O)[O][Pt]12([O]C(C)=O)([NH]CCCC[NH]1)[O]C(=O)CC(=O)[O]2 [7(Ac)M, trans-diacetato,malonato-1,4-butanediamine Pt (IV) complex] | – | higher than that of cisplatin | 22.0 ± 4.1 | 2.34 ± 1.0 | 21.5 ± 5.1 | 1.52 ± 0.3 | 24.0 ± 6.2 | 2.66 ± 0.7 | 22.4 ± 3.3 | 2.0 ± 1.5 | –
– | – | [OH][Pt]1([OH])([Cl])([Cl])[NH]CCCC[NH]1 [7(OH)Cl, trans, cis-dihydroxo,dichloro-1,4-butanediamine Pt(IV) complex] | lower anti-cancer activity than that of cisplatin | lower anti-cancer activity than that of cisplatin | – | – | – | – | – | – | – | – | –
– | – | O=C1CC(=O)[O][Pt]2([OH])([OH])([NH]CCCC[NH]2)[O]1 [7(OH)M, trans-dihydroxo,malonato-1,4-butanediamine Pt(IV) complex] | lower anti-cancer activity than that of cisplatin | lower anti-cancer activity than that of cisplatin | – | – | – | – | – | – | – | – | –
– | – | O=C([O][Pt]1([Cl])([Cl])([O]C(=O)C(F)(F)F)[NH]CCCC[NH]1)C(F)(F)F [7(TF)Cl, trans, cis-ditriflioroacetato,dichloro-1,4-butanediamine Pt(IV) complex] | superior to cisplatin(CDDP) | superior to that of cisplatin | 23.1 ± 3.3 | 1.82 ± 0.5 | 20.7 ± 3.5 | 1.88 ± 0.3 | 28.8 ± 6.4 | 2.2 ± 0.9 | 18.1 ± 2.3 | 2.22 ± 0.7 | ultra-structural changes of proximal renal tubule epithelial cells (TEM) ([2]; sacrificed 6 hours after i.p. injection): seriously damaged findings; ultra-structural changes of proximal renal tubule epithelial cells (TEM) ([2]; sacrificed 3 days after i.p. injection): most of cytoplasmic organelles were damaged
– | – | O=C1CC(=O)[O][Pt]2([O]C(=O)C(F)(F)F)([O]C(=O)C(F)(F)F)([NH]CCCC[NH]2)[O]1 [7(TF)M, trans-ditrifluoroacetato,malonato-1,4-butanediamine Pt(IV) complex] | – | higher than that of cisplatin | 23.1 ± 4.8 | 1.8 ± 0.4 | 22.3 ± 1.7 | 1.96 ± 0.3 | 22.1 ± 3.1 | 2.04 ± 0.3 | 22.9 ± 1.7 | 1.82 ± 0.4 | –
– | – | [NH2][Pt]1([NH2])[O]C(=O)C2(CCC2)C(=O)[O]1 [carboplatin, cis-diamine(1,1-cyclobutanedicarboxylato)platinum(II)] | – | – | – | – | – | – | – | – | – | – | IC50 relative to that of cisplatin (L1210 cells [3]): about 10 times

SMILES | IC50 (L1210 cells [1]) [µM] | IC50 (HL60 cells) [µM] | anti-cancer activity (IC50) compared with cisplatin, in words (L1210 cells [1]) | anti-cancer activity (IC50) compared with cisplatin, in words (HL60 cells) | BUN after the 1st time injection (male ICR mice; [4]) | Uric acid after the 1st time injection (male ICR mice; [4]) | BUN after the 1st time injection (male ICR mice; [5]) | Uric acid after the 1st time injection (male ICR mice; [5]) | BUN after the 1st time injection (male ICR mice; [6]) | Uric acid after the 1st time injection (male ICR mice; [6]) | BUN after the 1st time injection (male ICR mice; [7]) | Uric acid after the 1st time injection (male ICR mice; [7]) | further results
NCCN.[Cl][Pt][Cl] [5 Cl, cis-dichloro,ethylenediamine Pt(II) complex] | 11 | 11.7 | – | – | – | – | – | – | – | – | – | – | –
N.N.[Cl][Pt][Cl] [CDDP, cis-Diaminedichloroplatinum(II)] | – | 2.74 | – | – | – | – | – | – | – | – | – | – | –
